Measurements from ChEMBL document CHEMBL1144481, “Cholinesterase inhibitors: SAR and enzyme inhibitory activity of 3-[omega-(benzylmethylamino)alkoxy]xanthen-9-ones” (Bioorg Med Chem, 2007).

Assays:
[1] = molecular target: Acetylcholinesterase (Homo sapiens, UniProt P22303); assay: Inhibition of human erythrocyte AchE
[2] = molecular target: Cholinesterase (Homo sapiens, UniProt P06276); assay: Inhibition of human serum BuChE
[3] = species on record: Homo sapiens; assay: Ratio of IC50 for BuChE to IC50 for AchE
[4] = species on record: Homo sapiens; assay: Ratio of IC50 for AchE to IC50 for BuChE

Chain of Cholinesterase (P06276 whole entry): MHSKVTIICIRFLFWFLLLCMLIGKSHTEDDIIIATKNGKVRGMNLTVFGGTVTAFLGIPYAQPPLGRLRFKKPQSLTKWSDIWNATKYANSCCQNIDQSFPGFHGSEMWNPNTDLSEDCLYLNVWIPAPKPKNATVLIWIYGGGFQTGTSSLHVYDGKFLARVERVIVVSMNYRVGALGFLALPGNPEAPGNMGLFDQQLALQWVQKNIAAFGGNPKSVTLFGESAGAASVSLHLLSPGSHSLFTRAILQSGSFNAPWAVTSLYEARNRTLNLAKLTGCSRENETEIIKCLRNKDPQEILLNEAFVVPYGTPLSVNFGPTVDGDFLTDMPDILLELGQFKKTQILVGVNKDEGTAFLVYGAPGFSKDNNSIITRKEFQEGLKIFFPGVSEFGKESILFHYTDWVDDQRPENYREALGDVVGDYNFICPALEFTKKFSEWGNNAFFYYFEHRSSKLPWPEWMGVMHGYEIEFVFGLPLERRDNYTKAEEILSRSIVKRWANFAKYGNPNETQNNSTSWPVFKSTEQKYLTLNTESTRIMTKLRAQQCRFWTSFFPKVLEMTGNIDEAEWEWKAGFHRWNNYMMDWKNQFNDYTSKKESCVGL
Chain of Acetylcholinesterase (P22303 whole entry): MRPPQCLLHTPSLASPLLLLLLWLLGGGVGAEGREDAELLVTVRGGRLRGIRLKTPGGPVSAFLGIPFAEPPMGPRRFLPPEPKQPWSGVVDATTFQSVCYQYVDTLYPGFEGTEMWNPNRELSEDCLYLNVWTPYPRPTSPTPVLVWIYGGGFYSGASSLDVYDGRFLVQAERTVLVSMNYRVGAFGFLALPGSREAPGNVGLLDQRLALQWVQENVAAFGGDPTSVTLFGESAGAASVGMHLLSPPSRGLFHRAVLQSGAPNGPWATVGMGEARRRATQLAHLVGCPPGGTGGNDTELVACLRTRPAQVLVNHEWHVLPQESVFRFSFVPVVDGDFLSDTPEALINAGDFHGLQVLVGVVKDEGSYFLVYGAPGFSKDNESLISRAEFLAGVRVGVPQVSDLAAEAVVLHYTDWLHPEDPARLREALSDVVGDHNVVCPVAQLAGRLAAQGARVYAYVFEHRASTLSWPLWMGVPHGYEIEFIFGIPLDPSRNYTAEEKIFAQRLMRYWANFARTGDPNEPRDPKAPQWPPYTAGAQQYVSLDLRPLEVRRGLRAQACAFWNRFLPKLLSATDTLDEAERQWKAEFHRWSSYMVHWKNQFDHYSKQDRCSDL

## COc1ccccc1CN(C)CCCCCCCOc1ccc2c(=O)c3ccccc3oc2c1
[1]
  IC50: 2.18 µM
[2]
  IC50: 0.93 µM
[3]
  Ratio IC50: 0.43
[4]
  Ratio IC50: 2.34

## CN(CCCCCCCCCCCOc1ccc2c(=O)c3ccccc3oc2c1)Cc1ccccc1
[4]
  Ratio IC50: 5220

## CN(CCCCCCCCOc1ccc2c(=O)c3ccccc3oc2c1)Cc1ccccc1
[1]
  IC50: 10.3 µM
[2]
  IC50: 0.08 µM
[3]
  Ratio IC50: 0.008
[4]
  Ratio IC50: 129

## CN(CCCCCCCOc1ccc2c(=O)c3ccccc3oc2c1)Cc1ccc(Cl)cc1
[1]
  IC50: 1050 µM
[2]
  IC50: 127 µM
[3]
  Ratio IC50: 0.12
[4]
  Ratio IC50: 8.26

## CN(CCCCCCCCCOc1ccc2c(=O)c3ccccc3oc2c1)Cc1ccccc1
[4]
  Ratio IC50: 1520

## CN(CCCCOc1ccc2c(=O)c3ccccc3oc2c1)Cc1ccccc1
[1]
  IC50: 6.25 µM
[2]
  IC50: 2.65 µM
[3]
  Ratio IC50: 0.42
[4]
  Ratio IC50: 2.36

## CN(CCCCCOc1ccc2c(=O)c3ccccc3oc2c1)Cc1ccccc1
[1]
  IC50: 7.78 µM
[2]
  IC50: 2.49 µM
[3]
  Ratio IC50: 0.32
[4]
  Ratio IC50: 3.12

## COc1cc2oc3cc(OCCCCCCCN(C)Cc4ccccc4)ccc3c(=O)c2cc1OC
[1]
  IC50: 2.32 µM
[2]
  IC50: 3.08 µM
[3]
  Ratio IC50: 1.33
[4]
  Ratio IC50: 0.75

## COc1ccc(CN(C)CCCCCCCOc2ccc3c(=O)c4ccccc4oc3c2)cc1
[1]
  IC50: 360 µM
[2]
  IC50: 2.11 µM
[3]
  Ratio IC50: 0.006
[4]
  Ratio IC50: 171

## CN(CCCCCCCCCCOc1ccc2c(=O)c3ccccc3oc2c1)Cc1ccccc1
[4]
  Ratio IC50: 3880

## COc1ccc(CN(C)CCCCCCCOc2ccc3c(=O)c4ccccc4oc3c2)c(OC)c1OC
[1]
  IC50: 155 µM
[2]
  IC50: 1 µM
[3]
  Ratio IC50: 0.006
[4]
  Ratio IC50: 155

## COc1ccccc1CN(C)CCCOc1ccc2c(=O)c3ccccc3oc2c1
[1]
  IC50: 3.4 µM
[2]
  IC50: 1.91 µM
[3]
  Ratio IC50: 0.56
[4]
  Ratio IC50: 1.78

## CN(CCCCCCCOc1ccc2c(=O)c3ccccc3oc2c1)Cc1cccc(Cl)c1
[1]
  IC50: 594 µM
[2]
  IC50: 63.8 µM
[3]
  Ratio IC50: 0.1
[4]
  Ratio IC50: 9.3

## Cc1ccccc1CN(C)CCCCCCCOc1ccc2c(=O)c3ccccc3oc2c1
[1]
  IC50: 565 µM
[2]
  IC50: 29.5 µM
[3]
  Ratio IC50: 0.05
[4]
  Ratio IC50: 19.1

## COc1ccc2c(=O)c3ccc(OCCCCCCCN(C)Cc4ccccc4)cc3oc2c1
[1]
  IC50: 7.84 µM
[2]
  IC50: 46.1 µM
[3]
  Ratio IC50: 5.9
[4]
  Ratio IC50: 0.17

## CN(CCCCCCCOc1ccc2c(=O)c3ccccc3oc2c1)Cc1ccccc1Cl
[1]
  IC50: 433 µM
[2]
  IC50: 269 µM
[3]
  Ratio IC50: 0.62
[4]
  Ratio IC50: 1.6

## CN(CCCCCCCOc1ccc2c(=O)c3ccccc3oc2c1)Cc1ccccc1[N+](=O)[O-]
[1]
  IC50: 413 µM
[2]
  IC50: 14 µM
[3]
  Ratio IC50: 0.03
[4]
  Ratio IC50: 29.5

## COc1cccc(CN(C)CCCCCCCOc2ccc3c(=O)c4ccccc4oc3c2)c1OC
[1]
  IC50: 138 µM
[2]
  IC50: 2.01 µM
[3]
  Ratio IC50: 0.014
[4]
  Ratio IC50: 68.7

## CN(CCCCCCOc1ccc2c(=O)c3ccccc3oc2c1)Cc1ccccc1
[1]
  IC50: 2.89 µM
[2]
  IC50: 1.43 µM
[3]
  Ratio IC50: 0.49
[4]
  Ratio IC50: 2.02

## CN(CCCOc1ccc2c(=O)c3ccccc3oc2c1)Cc1ccccc1
[1]
  IC50: 2.68 µM
[2]
  IC50: 8.33 µM
[3]
  Ratio IC50: 3.11
[4]
  Ratio IC50: 0.32

## CN(CCCCCCCCCCCCOc1ccc2c(=O)c3ccccc3oc2c1)Cc1ccccc1
[4]
  Ratio IC50: 6050

## COc1cccc(CN(C)CCCCCCCOc2ccc3c(=O)c4ccccc4oc3c2)c1
[1]
  IC50: 40 µM
[2]
  IC50: 1.85 µM
[3]
  Ratio IC50: 0.05
[4]
  Ratio IC50: 21.6

## CN(CCCCCCCOc1ccc2c(=O)c3ccccc3oc2c1)Cc1ccccc1
[1]
  IC50: 2.82 µM
[2]
  IC50: 0.8 µM
[3]
  Ratio IC50: 0.28
[4]
  Ratio IC50: 3.52

## CNC(=O)Oc1cccc(CN(C)CCCCCCCOc2ccc3c(=O)c4ccccc4oc3c2)c1
[3]
  Ratio IC50: 51.6
[4]
  Ratio IC50: 0.019

## CCN(CCCCCCCOc1ccc2c(=O)c3ccccc3oc2c1)Cc1ccccc1OC
[1]
  IC50: 3.15 µM
[2]
  IC50: 0.32 µM
[3]
  Ratio IC50: 0.1
[4]
  Ratio IC50: 9.8

## COc1ccc(OC)c(CN(C)CCCCCCCOc2ccc3c(=O)c4ccccc4oc3c2)c1
[1]
  IC50: 127 µM
[2]
  IC50: 1.27 µM
[3]
  Ratio IC50: 0.01
[4]
  Ratio IC50: 100
